Here are results for four compounds from paper PMC11310081, “Deep-learning-enabled antibiotic discovery through molecular de-extinction” (Nature Biomedical Engineering, 2024).

One data set relates to E. coli AIC221. Format: cell-based, Escherichia coli. The following applies: AIC221, 20 h. From the text:
(§1) The following Gram-negative bacteria were used in our study: A. baumannii ATCC 19606, E. coli ATCC 11775, E. coli AIC221 (E. coli MG1655 phnE_2::FRT), E. coli AIC222 (E. coli MG1655 pmrA53 phnE_2::FRT (colistin resistant)), K. pneumoniae ATCC 13883, P. aeruginosa PAO1 and P. aeruginosa PA14. The following Gram-positive bacteria were also used in our study: S. aureus ATCC 12600, S. aureus ATCC BAA-1556 (methicillin-resistant strain), E. faecalis ATCC 700802 (vancomycin-resistant strain) and E. faecium ATCC 700221 (vancomycin-resistant strain). Bacteria were grown from frozen stocks and plated on Luria–Bertani (LB) or Pseudomonas isolation agar plates (P. aeruginosa strains) and incubated overnight at 37 °C. After the incubation period, a single colony was transferred to 5 ml of LB medium, and cultures were incubated overnight (16 h) at 37 °C. The following day, an inoculum was prepared by diluting the overnight cultures 1:100 in 5 ml of the respective media and incubating them at 37 °C until bacteria reached logarithmic phase (OD600 = 0.3–0.5).
(§2) The in vitro antimicrobial activity of the peptides was assessed by using the broth microdilution assay. […] Aqueous solutions of the peptides were added to the plate at concentrations ranging from 1 to 64 μmol l^−1. […] The optical density of the plates was measured at 600 nm using a spectrophotometer. All assays were done as three biological replicates.

A further data set relates to E. coli ATCC 11775. The data set is classed as cell-based, Escherichia coli. The following applies: ATCC 11775, 20 h.
Excerpt: as §1, §2

Data set [1] deals with E. faecium ATCC 700221 (vancomycin-resistant strain). Format: cell-based, Enterococcus faecium. The following applies: ATCC 700221, 20 h.
Excerpt: as §1, §2

The next data set has as its system HEK293T cells. The following applies: 24 h. Here is the method:
HEK293T cells were obtained from the American Type Culture Collection (CRL-3216). The cells were cultured in high-glucose Dulbecco’s modified Eagle’s medium supplemented with 1% penicillin and streptomycin (antibiotics) and 10% fetal bovine serum and grown at 37 °C in a humidified atmosphere containing 5% CO2.
One day before the experiment, an aliquot of 100 μl of the cells at 50,000 cells per ml was seeded into each well of the cell-treated 96-well plates used in the experiment (that is, 5,000 cells per well). […] After the incubation period, we performed the 3-(4,5-dimethylthiazol-2-yl)-2,5-diphenyltetrazolium bromide tetrazolium reduction assay (MTT assay)[53]. The MTT reagent was dissolved at 0.5 mg ml^−1 in medium without phenol red and was used to replace cell culture supernatants containing the peptides (100 μl per well), and the samples were incubated for 4 h at 37 °C in a humidified atmosphere containing 5% CO2 yielding the insoluble formazan salt. The resulting salts were then resuspended in hydrochloric acid (0.04 mol l^−1) in anhydrous isopropanol and quantified by spectrophotometric measurements of absorbance at 570 nm. All assays were done as three biological replicates.
Unless otherwise stated, all assays were performed in three independent biological replicates as indicated in each figure legend and Methods sections. The cytotoxic activities values were estimated using non-linear regression based on the range of concentrations screened and were shown as the values that cause lysis of 50% of the cells in the experiment. Two technical replicates were performed in the cytotoxicity assays within each of the three biological replicates.

The subject of data set [2] is 11 clinically relevant bacterial pathogens. The data set is classed as cell-based. The following applies: Supplementary Dataset 2; against the 11 pathogens tested. An outline of the steps: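 Optical density at 600 nm served as the growth read-out after broth microdilution exposure to peptides spanning 1–64 μmol l^−1. Assays used logarithmic-phase bacteria and were run as three biological replicates.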

Another data set relates to A. baumannii ATCC 19606. Format: cell-based, Acinetobacter baumannii. The following applies: ATCC 19606, 20 h.
Excerpt: as §1, §2

The test system of the next data set is K. pneumoniae ATCC 13883. The data set is classed as cell-based, Klebsiella pneumoniae. The following applies: ATCC 13883, 20 h.
Excerpt: as §1, §2

Data set [3] has as its system S. aureus ATCC BAA-1556 (methicillin-resistant strain). The data set is classed as cell-based, Staphylococcus aureus. The following applies: ATCC BAA-1556, 20 h.
Excerpt: as §1, §2

Converted amounts (≈) assume the structure as drawn. Peptide text beside a SMILES is read from it.

As usually defined, the CC50 is the concentration at which the toxic effect on the cells reaches its halfway point. Low values mean greater toxicity to the cells, high ones lower toxicity to the cells. Turning to `CC[C@H](C)[C@H](NC(=O)[C@H](CC(C)C)NC(=O)[C@H](CCCNC(=N)N)NC(=O)[C@H](Cc1c[nH]c2ccccc12)NC(=O)[C@H](CC(C)C)NC(=O)[C@@H](NC(=O)[C@H](CCCNC(=N)N)NC(=O)[C@H](CCC(N)=O)NC(=O)[C@H](Cc1ccc(O)cc1)NC(=O)[C@H](CC(C)C)NC(=O)[C@@H](N)CCCCN)[C@@H](C)CC)C(=O)N[C@@H](CO)C(=O)N[C@@H](CCC(=O)O)C(=O)N[C@@H](CC(C)C)C(=O)O` [Equusin-3] (H-KLYQRILWRLISEL-OH; N-terminus and C-terminus assumed), in the data set with E. coli AIC221, the “Minimal inhibitory concentration, E. coli AIC221” value was 4 µM (≈ 7.32 µg/mL). The “Minimal inhibitory concentration, E. coli ATCC11775” value in the data set on E. coli ATCC 11775 came out at 16 µM (≈ 29.3 µg/mL). For the same compound, the “Minimal inhibitory concentration, E. faecium ATCC700221-VRE” value in data set [1] is 8 µM (≈ 14.6 µg/mL). This compound displayed a CC50 in the data set with HEK293T cells of over 128 µM. In data set [2], the “Active or Inactive” value is recorded as “Active”.

Consider `CC[C@H](C)[C@H](NC(=O)[C@@H](NC(=O)[C@H](Cc1c[nH]c2ccccc12)NC(=O)[C@H](CCCCN)NC(=O)[C@@H](N)CCCCN)C(C)C)C(=O)N[C@@H](CCCCN)C(=O)N[C@@H](CO)C(=O)N[C@H](C(=O)N[C@H](C(=O)N[C@@H](Cc1ccccc1)C(=O)N[C@@H](Cc1ccccc1)C(=O)N[C@@H](CCCCN)C(=O)O)C(C)C)C(C)C` [Hesperelin-2] (H-KKWVIKSVVFFK-OH; N-terminus and C-terminus assumed), for which the “Minimal inhibitory concentration, A. baumannii ATCC19606” value in the data set on A. baumannii ATCC 19606 is 16 µM (≈ 24.1 µg/mL). For the same compound, in the data set on E. coli AIC221, the “Minimal inhibitory concentration, E. coli AIC221” value was found to be 8 µM (≈ 12.1 µg/mL). Further, the “Minimal inhibitory concentration, K. pneumoniae ATCC133883” value in the data set on K. pneumoniae ATCC 13883 is 32 µM (≈ 48.3 µg/mL). For the same compound, in data set [3], the “Minimal inhibitory concentration, S. aureus ATCC BAA-1556-MRSA” value was 16 µM (≈ 24.1 µg/mL). Besides, the “Minimal inhibitory concentration, E. faecium ATCC700221-VRE” value in data set [1] was 8 µM (≈ 12.1 µg/mL). Besides, the CC50 in the data set with HEK293T cells is over 128 µM. For the same compound, the “Active or Inactive” value in data set [2] is listed as “Active”.

Turning to `CC[C@H](C)[C@H](NC(=O)[C@H](Cc1ccccc1)NC(=O)[C@@H](N)CCCCN)C(=O)N[C@@H](CC(C)C)C(=O)N[C@@H](CC(N)=O)C(=O)N[C@@H](Cc1ccccc1)C(=O)N[C@@H](CCCCN)C(=O)N[C@H](C(=O)N1CCC[C@H]1C(=O)N[C@H](C(=O)N[C@@H](CO)C(=O)N[C@@H](Cc1ccccc1)C(=O)N[C@@H](CCCCN)C(=O)O)[C@@H](C)CC)[C@@H](C)CC` [Pinguinusin-1] (H-KFILNFKIPISFK-OH; N-terminus and C-terminus assumed), in the data set with A. baumannii ATCC 19606, the “Minimal inhibitory concentration, A. baumannii ATCC19606” value came out at 32 µM (≈ 51 µg/mL). Further, in the data set on E. coli AIC221, the “Minimal inhibitory concentration, E. coli AIC221” value amounted to 4 µM (≈ 6.38 µg/mL). Further, the “Minimal inhibitory concentration, E. coli ATCC11775” value with E. coli ATCC 11775 worked out at 16 µM (≈ 25.5 µg/mL). The “Minimal inhibitory concentration, K. pneumoniae ATCC133883” value in the data set on K. pneumoniae ATCC 13883 was determined as 16 µM (≈ 25.5 µg/mL). In the data set with HEK293T cells, this compound yielded a CC50 of over 128 µM. Besides, in data set [2], the “Active or Inactive” value was “Active”.

As for `CC[C@H](C)[C@H](N)C(=O)N[C@@H](CO)C(=O)N[C@@H](CC(C)C)C(=O)N[C@@H](Cc1ccccc1)C(=O)N[C@H](C(=O)N[C@@H](CCCNC(=N)N)C(=O)N1CCC[C@H]1C(=O)N[C@@H](CC(C)C)C(=O)N[C@@H](C)C(=O)N[C@@H](CC(C)C)C(=O)NCC(=O)N[C@H](C(=O)N[C@@H](CCCNC(=N)N)C(=O)N[C@@H](CC(C)C)C(=O)O)C(C)C)[C@@H](C)CC` [Psephotellin-1] (H-ISLFIRPLALGVRL-OH; N-terminus and C-terminus assumed), the “Minimal inhibitory concentration, A. baumannii ATCC19606” value in the data set on A. baumannii ATCC 19606 was found to be 32 µM (≈ 50.2 µg/mL). For the same compound, in the data set on E. coli AIC221, the “Minimal inhibitory concentration, E. coli AIC221” value is 16 µM (≈ 25.1 µg/mL). Also, the “Minimal inhibitory concentration, E. coli ATCC11775” value with E. coli ATCC 11775 worked out at 16 µM (≈ 25.1 µg/mL). For the same compound, in the data set on K. pneumoniae ATCC 13883, the “Minimal inhibitory concentration, K. pneumoniae ATCC133883” value is 32 µM (≈ 50.2 µg/mL). The CC50 in the data set with HEK293T cells is over 128 µM. Further, the “Active or Inactive” value in data set [2] is reported as “Active”.
